The source of these data is EPA's ToxValDB 9.5 (doi:10.2903/j.efsa.2009.1415).

The test system of one series is Anas platyrhynchos. The conditions noted are these: short-term; oral; feed; mortality.
In another series the test system is Apis mellifera. The following applies: acute; duration: 48 hours; dermal; mortality.
The test system of a further series is Cyprinus carpio. The following applies: acute; duration: 96 hours; mortality.
The next series deals with Daphnia magna. The conditions noted are these: chronic/long-term; duration: 21 days; reproduction.
For another series, the system named is Pimephales promelas. The conditions noted are these: chronic/long-term; duration: 35 days; growth.
The next series relates to Typhlodromus pyri. Briefly: LR50; higher = less toxic. The following applies: not reported; mortality.

The structures appear in SMILES notation. In brackets after ≈: the same amount, converted by molar mass.

For the compound `CCCOCC(=Nc1ccc(Cl)cc1C(F)(F)F)n1ccnc1` [Triflumizole], the figures for the LC50 with Anas platyrhynchos and in the series on Cyprinus carpio were > 1430 mg/kg-day and 1.28 µg/mL (≈ 3.7 µM), respectively. In addition, the LD50 is > 20 µg/piece in the series with Apis mellifera; > 2510 mg/kg-day with Colinus virginianus (acute, oral, mortality); 1060 mg/kg-day with Rattus norvegicus (acute, oral, mortality). The NOEC was ≥ 97.2 mg/kg-day in the series on Colinus virginianus (reproduction developmental), 0.18 mg/L in the series on Daphnia magna and 0.044 mg/L with Pimephales promelas. Also, the NOAEL was determined as 3.5 mg/kg-day with Rattus norvegicus (chronic, duration: 2 years, organ weight); 10 mg/kg-day in the series on Rattus norvegicus (developmental, development); 4.8 mg/kg-day in the series with Rattus norvegicus (reproduction developmental, reproduction); 4.1 mg/kg-day in the series on Rattus norvegicus (subchronic, duration: 90 days, organ weight). The compound further registered an LR50 in the series with Typhlodromus pyri of 63 g/ha.
